Experimental data taken from patent EP4772510A2, “BENZAZEPINONE COMPOUND AND USE THEREOF” (HANGZHOU BIO-SINCERITY PHARMA-TECHCO., LTD., priority 2023, dated 2025).

Molecular target: T1, hERG ion channel (Homo sapiens, UniProt Q12809)
T1 construct: expressed in transfected cells
Assay: Inhibition of hERG ion channel (whole-cell patch clamp, HEK293 cells)
Assay type: cell-based
Settings: compound 10 µM, room temperature
Experimental: Example 58: Inhibition of hERG Ion Channel by Compounds
The hERG ion channel was stably expressed in HEK293 cells.
The test sample was dissolved in dimethyl sulfoxide (DMSO) to prepare a 9 mM stock solution, which was stored in a -20 °C freezer. On the testing day, the stock solution was further dissolved in the extracellular fluid to achieve the required concentrations. The concentration for electrophysiological test was 10 µM.
The extracellular fluid (mM) was: sodium chloride, 137; potassium chloride, 4; calcium chloride, 1.8; magnesium chloride, 1; HEPES, 10; glucose, 10. The pH was adjusted to 7.34 with sodium hydroxide. The extracellular fluid was stored at 2-8 °C.
The intracellular fluid (mM) was: potassium aspartate, 130; magnesium chloride, 5; ethylene glycol tetraacetic acid (EGTA), 5; N-2-hydroxyethylpiperazine-N'-2-ethanesulfonic acid (HEPES), 10. […]
For administration of the test samples, perfusion was carried out using a perfusion system utilizing the gravity of one's own. […] The mean of the peak current amplitudes recorded for the last three times during the initial recording served as the current peak of the negative control. After the initial current was stable, the test samples were administered starting from a low concentration until three recorded peak currents were again stable or the peak currents were "constant" after and before continuous administration for 5 min. […]

T1 sequence (Q12809 whole entry): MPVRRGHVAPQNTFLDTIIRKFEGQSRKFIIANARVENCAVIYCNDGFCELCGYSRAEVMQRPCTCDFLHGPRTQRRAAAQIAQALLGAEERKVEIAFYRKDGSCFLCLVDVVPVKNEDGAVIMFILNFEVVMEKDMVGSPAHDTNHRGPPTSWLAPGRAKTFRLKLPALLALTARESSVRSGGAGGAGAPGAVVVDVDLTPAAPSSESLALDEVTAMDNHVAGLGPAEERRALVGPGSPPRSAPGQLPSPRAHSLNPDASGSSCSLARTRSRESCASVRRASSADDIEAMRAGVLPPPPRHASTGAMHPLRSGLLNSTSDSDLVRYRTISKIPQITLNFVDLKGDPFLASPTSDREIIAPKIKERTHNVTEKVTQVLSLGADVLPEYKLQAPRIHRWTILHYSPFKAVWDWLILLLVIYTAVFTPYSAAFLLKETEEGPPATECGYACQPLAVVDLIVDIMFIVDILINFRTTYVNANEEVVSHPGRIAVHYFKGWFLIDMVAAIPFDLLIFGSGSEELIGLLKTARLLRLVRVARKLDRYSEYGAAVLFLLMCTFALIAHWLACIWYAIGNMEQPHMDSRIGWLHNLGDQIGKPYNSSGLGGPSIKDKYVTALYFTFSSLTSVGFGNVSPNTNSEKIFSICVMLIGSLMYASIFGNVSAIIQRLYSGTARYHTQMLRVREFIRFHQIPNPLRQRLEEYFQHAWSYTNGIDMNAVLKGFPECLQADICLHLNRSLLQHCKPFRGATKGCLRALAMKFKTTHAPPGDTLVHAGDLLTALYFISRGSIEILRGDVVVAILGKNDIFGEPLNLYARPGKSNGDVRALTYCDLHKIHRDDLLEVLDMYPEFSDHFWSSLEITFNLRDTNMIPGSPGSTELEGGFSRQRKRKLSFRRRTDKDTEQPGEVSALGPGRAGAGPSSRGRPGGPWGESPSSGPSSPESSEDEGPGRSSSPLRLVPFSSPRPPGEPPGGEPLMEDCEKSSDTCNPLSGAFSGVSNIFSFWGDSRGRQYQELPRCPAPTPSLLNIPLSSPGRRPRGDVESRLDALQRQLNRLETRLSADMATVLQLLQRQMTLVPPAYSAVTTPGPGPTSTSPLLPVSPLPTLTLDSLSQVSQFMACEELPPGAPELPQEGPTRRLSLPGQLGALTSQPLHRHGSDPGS

O=C(NC1CCc2cc(C#Cc3cnn(C(F)F)c3)cc3c2N(CC3)C1=O)c1ncn(Cc2c(F)cccc2F)n1 (centres unmarked) [III-17, 1-(2,6-difluorobenzyl)-N-(9-((1-(difluoromethyl)-1H-pyrazol-4-yl)ethynyl)-4-oxo-1,2,3,4,6,7-hexahydroazepino[3,2,1-hi]indol-3-yl)-1H-1,2,4-triazole-3-carboxamide]
Percentage blocking rate of hERG channel: 38.89%

N-(9-((1-(difluoromethyl)-1H-pyrazol-4-yl)ethynyl)-4-oxo-1,2,3,4,6,7-hexahydroazepino[3,2,1-hi]indol-3-yl)-1-(4-methylbenzyl)-1H-1,2,4-triazole-3-carboxamide [III-25]
Percentage blocking rate of hERG channel: 39.58%
